Data reported in patent publication US11026910B2, “α- and γ-truxillic acid derivatives and pharmaceutical compositions thereof” (The Research Foundation for The State University of New York, priority 2012, dated 2021).

Assays:
[1] = tested on: dorsal raphe (DR) serotonin (5-HT) neurons; experiment: Patch-clamp electrophysiology in brain slices, glutamate-mediated EPSCs; assay type: cell-based
Protocol: Whole-cell-voltage clamp recordings of dorsal raphe (DR) serotonin (5-HT) neurons were performed as previously described. Briefly, DR neurons were visualized using an upright microscope (BX 51 WI, Olympus, Tokyo, Japan) equipped with a differential interference contrast and infrared imaging system. Somatic recordings from DR neurons were obtained with path electrodes ([…]) back-filled with potassium gluconate based internal solution of the following composition: 120 mM potassium gluconate, 10 mM KCl, 10 mM Na2-phosphocreatine, 10 mM HEPES, 1 mM MgCl2, 1 mM EGTA, 2 mM Na2-ATP, 0.25 mM Na-GTP, pH 7.3 (Adjusted with KOH; Osmolarity, 280 to 290 mOsmol/l). All the recordings were conducted in the presence of GABAA receptor antagonist picrotoxin (100 μM). Excitatory postsynaptic currents (EPSCs) were evoked with a single square stimulus (intensity, 1 to 10 V, duration, 100 to 200 μs) delivered via a glass stimulating electrode. […]
The amplitude of EPSCs was determined by measuring the average current during a 2-ms period at the peak of each EPSC and subtracted from the baseline current determined during a 5-ms time window before the stimulus. All EPSC amplitudes were normalized to the mean baseline amplitude recorded for at least 10 min before drug application. […]

rat FAAH = biological target: T1, rat FAAH (Rattus norvegicus, UniProt P97612); experiment: FAAH enzyme assay, hydrolysis of [14C]AEA in HeLa homogenates; assay type: biochemical; conditions: FAAH-transfected HeLa homogenates
T1 construct: expressed in transfected cells; host or cells: HeLa
T1 sequence (P97612 1-579): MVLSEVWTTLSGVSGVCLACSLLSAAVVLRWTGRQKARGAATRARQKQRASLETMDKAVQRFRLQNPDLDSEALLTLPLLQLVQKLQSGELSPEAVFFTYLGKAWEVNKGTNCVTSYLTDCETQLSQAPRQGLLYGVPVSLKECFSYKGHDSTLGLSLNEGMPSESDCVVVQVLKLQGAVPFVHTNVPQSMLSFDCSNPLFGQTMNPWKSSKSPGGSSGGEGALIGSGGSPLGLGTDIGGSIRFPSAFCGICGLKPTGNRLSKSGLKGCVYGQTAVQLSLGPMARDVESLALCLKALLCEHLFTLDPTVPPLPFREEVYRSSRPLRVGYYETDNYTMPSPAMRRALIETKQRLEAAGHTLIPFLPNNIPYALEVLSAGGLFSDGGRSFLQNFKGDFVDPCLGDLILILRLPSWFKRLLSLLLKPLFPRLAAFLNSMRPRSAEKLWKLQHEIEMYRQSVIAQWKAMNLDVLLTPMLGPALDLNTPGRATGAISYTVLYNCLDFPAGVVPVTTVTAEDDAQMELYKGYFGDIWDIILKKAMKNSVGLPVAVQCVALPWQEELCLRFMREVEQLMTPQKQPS

[2] = tested on: brain levels of the endocannabinoid anandamide (AEA); experiment: Brain levels of the endocannabinoid anandamide (AEA); assay type: in vivo, mice; conditions: FIG. 17
Protocol: We used male C57Bl6 mice (22-30 g, Taconic Farms) for all experiments. The animals were group housed at room temperature and kept on a 12:12 hour light:dark cycle with ad libitum access to water and food. The animals were habituated to the experimental room for one week before testing. All experiments were approved by the Stony Brook University Institutional Animal Care and Use Committee. The experimenter was blinded to the treatment conditions of each animal.

O=C(O)[C@H]1[C@@H](c2ccccc2)[C@@H](C(=O)Oc2cccc3ccccc23)[C@@H]1c1ccccc1 (single isomer, unassigned) [Compound 26, α-2,4-diphenyl-cyclobutane-1,3-dicarboxylic Acid mono-(1-naphthol) Ester]
amplitude of EPSCs ([1]; bath application 10 μM, n=8): 107±6.7 % of baseline | agonist properties at CB1 receptors ([1]; concluded from EPSC amplitude, 10 μM): is not a CB1 receptor agonist | inhibition of FAAH (AEA hydrolysis) (rat FAAH): does not inhibit | brain levels of anandamide (AEA) [2]: elevates
